In the supplement of paper PMC10307832:

Key:
Experiment in all cases: relative viability (nuclei count vs DMSO), 5 days (fraction); higher = more cells survive
ABC-1 = system: ABC-1
How it was run: (§1)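 Lung cancer cell lines were pin-tool dosed in 1536-well plates on the day after seeding, with either a lone drug or a fixed anchor-drug dose plus five library-drug doses (not always all listed) in √10 steps. Nuclei were counted on 4× images after 5 days. Relative viability is the ratio of treated-well to vehicle-well nuclei counts, with each value a median of duplicate plates.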

COR-L23 = system: COR-L23
How it was run: as §1

ChaGo-K-1 = system: ChaGo-K-1
How it was run: as §1

EMC-BAC-2 = system: EMC-BAC-2
How it was run: as §1

HARA = system: HARA
How it was run: as §1

HCC-15 = system: HCC-15
How it was run: as §1

HCC-366 = system: HCC-366
How it was run: as §1

HCC-78 = system: HCC-78
How it was run: as §1

HOP-62 = system: HOP-62
How it was run: as §1

LC-2-ad = system: LC-2-ad
How it was run: as §1

NCI-H1944 = system: NCI-H1944
How it was run: as §1

NCI-H1993 = system: NCI-H1993
How it was run: as §1

NCI-H2023 = system: NCI-H2023
How it was run: as §1

NCI-H2126 = system: NCI-H2126
How it was run: as §1

NCI-H2228 = system: NCI-H2228
How it was run: as §1

NCI-H23 = system: NCI-H23
How it was run: as §1

NCI-H2405 = system: NCI-H2405
How it was run: as §1

NCI-H358 = system: NCI-H358
How it was run: as §1

NCI-H838 = system: NCI-H838
How it was run: as §1

SK-LU-1 = system: SK-LU-1
How it was run: as §1

## CC(=O)O[C@@]12CO[C@@H]1C[C@H](O)[C@@]1(C)C(=O)[C@H](O)C3=C(C)[C@@H](OC(=O)[C@H](O)[C@@H](NC(=O)OC(C)(C)C)c4ccccc4)C[C@@](O)([C@@H](OC(=O)c4ccccc4)[C@H]21)C3(C)C [Docetaxel] + C[C@@H](Oc1cc(-c2cnn(C3CCNCC3)c2)cnc1N)c1c(Cl)ccc(F)c1Cl [Crizotinib] (partner 1 µM)
ABC-1; first compound 0.0002 µM
  relative viability: 1.04
ABC-1; first compound 0.000632 µM
  relative viability: 0.78
ABC-1; first compound 0.002 µM
  relative viability: 0.274
ABC-1; first compound 0.006325 µM
  relative viability: 0.275
ABC-1; first compound 0.02 µM
  relative viability: 0.242
COR-L23; first compound 0.0002 µM
  relative viability: 0.536
COR-L23; first compound 0.000632 µM
  relative viability: 0.483
COR-L23; first compound 0.002 µM
  relative viability: 0.111
COR-L23; first compound 0.006325 µM
  relative viability: 0.132
COR-L23; first compound 0.02 µM
  relative viability: 0.0806
ChaGo-K-1; first compound 0.0002 µM
  relative viability: 1.06
ChaGo-K-1; first compound 0.000632 µM
  relative viability: 0.813
ChaGo-K-1; first compound 0.002 µM
  relative viability: 0.457
ChaGo-K-1; first compound 0.006325 µM
  relative viability: 0.339
ChaGo-K-1; first compound 0.02 µM
  relative viability: 0.263
EMC-BAC-2; first compound 0.0002 µM
  relative viability: 0.651
EMC-BAC-2; first compound 0.000632 µM
  relative viability: 0.401
EMC-BAC-2; first compound 0.002 µM
  relative viability: 0.404
EMC-BAC-2; first compound 0.02 µM
  relative viability: 0.161
HARA; first compound 0.0002 µM
  relative viability: 0.903
HARA; first compound 0.000632 µM
  relative viability: 0.364
HARA; first compound 0.002 µM
  relative viability: 0.312
HARA; first compound 0.006325 µM
  relative viability: 0.0907
HARA; first compound 0.02 µM
  relative viability: 0.104
HCC-15; first compound 0.0002 µM
  relative viability: 0.818
HCC-15; first compound 0.000632 µM
  relative viability: 0.452
HCC-15; first compound 0.002 µM
  relative viability: 0.172
HCC-15; first compound 0.006325 µM
  relative viability: 0.207
HCC-15; first compound 0.02 µM
  relative viability: 0.14
HCC-366; first compound 0.0002 µM
  relative viability: 0.426
HCC-366; first compound 0.000632 µM
  relative viability: 0.0953
HCC-366; first compound 0.002 µM
  relative viability: 0.0204
HCC-366; first compound 0.006325 µM
  relative viability: 0.0165
HCC-366; first compound 0.02 µM
  relative viability: 0.0108
HCC-78; first compound 0.0002 µM
  relative viability: 0.33
HCC-78; first compound 0.000632 µM
  relative viability: 0.32
HCC-78; first compound 0.002 µM
  relative viability: 0.245
HCC-78; first compound 0.006325 µM
  relative viability: 0.308
HCC-78; first compound 0.02 µM
  relative viability: 0.223
HOP-62; first compound 0.0002 µM
  relative viability: 0.903
HOP-62; first compound 0.000632 µM
  relative viability: 0.386
HOP-62; first compound 0.02 µM
  relative viability: 0.129
LC-2-ad; first compound 0.0002 µM
  relative viability: 0.388
LC-2-ad; first compound 0.000632 µM
  relative viability: 0.342
LC-2-ad; first compound 0.002 µM
  relative viability: 0.318
LC-2-ad; first compound 0.006325 µM
  relative viability: 0.389
LC-2-ad; first compound 0.02 µM
  relative viability: 0.222
NCI-H1944; first compound 0.0002 µM
  relative viability: 1.13
NCI-H1944; first compound 0.000632 µM
  relative viability: 1.01
NCI-H1944; first compound 0.002 µM
  relative viability: 0.956
NCI-H1944; first compound 0.006325 µM
  relative viability: 0.192
NCI-H1944; first compound 0.02 µM
  relative viability: 0.137
NCI-H1993; first compound 0.0002 µM
  relative viability: 0.93
NCI-H1993; first compound 0.000632 µM
  relative viability: 0.787
NCI-H1993; first compound 0.002 µM
  relative viability: 0.791
NCI-H1993; first compound 0.006325 µM
  relative viability: 0.537
NCI-H1993; first compound 0.02 µM
  relative viability: 0.508
NCI-H2023; first compound 0.0002 µM
  relative viability: 0.587
NCI-H2023; first compound 0.000632 µM
  relative viability: 0.451
NCI-H2023; first compound 0.002 µM
  relative viability: 0.123
NCI-H2023; first compound 0.006325 µM
  relative viability: 0.096
NCI-H2023; first compound 0.02 µM
  relative viability: 0.0789
NCI-H2126; first compound 0.0002 µM
  relative viability: 1.01
NCI-H2126; first compound 0.000632 µM
  relative viability: 1.03
NCI-H2126; first compound 0.002 µM
  relative viability: 0.632
NCI-H2126; first compound 0.006325 µM
  relative viability: 0.382
NCI-H2126; first compound 0.02 µM
  relative viability: 0.322
NCI-H2228; first compound 0.0002 µM
  relative viability: 0.358
NCI-H2228; first compound 0.000632 µM
  relative viability: 0.292
NCI-H2228; first compound 0.002 µM
  relative viability: 0.22
NCI-H2228; first compound 0.006325 µM
  relative viability: 0.278
NCI-H2228; first compound 0.02 µM
  relative viability: 0.159
NCI-H23; first compound 0.0002 µM
  relative viability: 0.534
NCI-H23; first compound 0.000632 µM
  relative viability: 0.412
NCI-H23; first compound 0.002 µM
  relative viability: 0.271
NCI-H23; first compound 0.006325 µM
  relative viability: 0.189
NCI-H23; first compound 0.02 µM
  relative viability: 0.113
NCI-H2405; first compound 0.0002 µM
  relative viability: 0.87
NCI-H2405; first compound 0.000632 µM
  relative viability: 0.623
NCI-H2405; first compound 0.002 µM
  relative viability: 0.447
NCI-H2405; first compound 0.006325 µM
  relative viability: 0.396
NCI-H2405; first compound 0.02 µM
  relative viability: 0.292
NCI-H358; first compound 0.0002 µM
  relative viability: 0.383
NCI-H358; first compound 0.000632 µM
  relative viability: 0.342
NCI-H358; first compound 0.002 µM
  relative viability: 0.16
NCI-H358; first compound 0.02 µM
  relative viability: 0.116
NCI-H838; first compound 0.0002 µM
  relative viability: 0.856
NCI-H838; first compound 0.000632 µM
  relative viability: 0.7
NCI-H838; first compound 0.002 µM
  relative viability: 0.155
NCI-H838; first compound 0.006325 µM
  relative viability: 0.201
NCI-H838; first compound 0.02 µM
  relative viability: 0.124
SK-LU-1; first compound 0.0002 µM
  relative viability: 0.692
SK-LU-1; first compound 0.000632 µM
  relative viability: 0.567
SK-LU-1; first compound 0.002 µM
  relative viability: 0.379
SK-LU-1; first compound 0.006325 µM
  relative viability: 0.249
SK-LU-1; first compound 0.02 µM
  relative viability: 0.272
